{"source": "patent US9695155B2", "about": "“Herbicidal substituted pyrimidinyloxy benzene compounds” (E. I. DU PONT DE NEMOURS AND COMPANY, priority 2013, dated 2017)", "key": {"[1]": {"tested_on": "barnyardgrass", "assay": "Test A postemergence", "assay_type": "in vivo, Echinochloa crus-galli", "conditions": "1000 g ai/ha, 0 to 100 scale, 0 no effect, 100 complete control", "method_in_brief": "(§1)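 Visual 0–100 rating (100 = complete control) taken about 10 d post-treatment relative to untreated checks. Preemergence: directed soil spray on sown loam/sand pots. Postemergence: seedlings 2–10 cm, 1–2 leaf. Non-phytotoxic solvent formulation with surfactant.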"}, "[2]": {"tested_on": "rice", "assay": "Test B flooded paddy test", "assay_type": "in vivo, Oryza sativa", "conditions": "Flood, 250 g ai/ha; 0 to 100 scale where 0 is no effect and 100 is complete control", "method_in_brief": "(§2)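 Visual ratings on a 0 to 100 scale, where 100 means complete control, compared treated plants with controls after 13 to 15 days in a greenhouse. Treatment went into paddy water 3 cm deep over the soil, applied to plants at the 2-leaf stage.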"}, "[3]": {"tested_on": "chickweed", "assay": "Test C postemergence", "assay_type": "in vivo, Stellaria media", "method_in_brief": "(§3)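 Greenhouse herbicide screen. Pre: seeded loam/sand, sprayed at planting. Post: 1–4 leaf plants (2–18 cm) in peat-based mix. Formulation: solvent mixture + surfactant, non-phytotoxic. Readout: visual % control vs untreated, 13–15 d; dash = not tested.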"}, "[4]": {"tested_on": "barnyardgrass", "assay": "Test C postemergence", "assay_type": "in vivo, Echinochloa crus-galli", "method_in_brief": "as §3"}, "[5]": {"tested_on": "large (Lg) crabgrass", "assay": "Test C postemergence", "assay_type": "in vivo, Digitaria sanguinalis", "method_in_brief": "as §3"}, "[6]": {"tested_on": "pigweed", "assay": "Test A postemergence", "assay_type": "in vivo, Amaranthus retroflexus", "conditions": "1000 g ai/ha, 0 to 100 scale, 0 no effect, 100 complete control", "method_in_brief": "as §1"}, "[7]": {"tested_on": "lambsquarters", "assay": "Test C postemergence", "assay_type": "in vivo, Chenopodium album", "method_in_brief": "as §3"}, "[8]": {"tested_on": "wild oat", "assay": "Test C postemergence", "assay_type": "in vivo, Avena fatua", "method_in_brief": "as §3"}, "[9]": {"tested_on": "yellow nutsedge", "assay": "Test C postemergence", "assay_type": "in vivo, Cyperus esculentus", "method_in_brief": "as §3"}, "[10]": {"tested_on": "morningglory", "assay": "Test C postemergence", "assay_type": "in vivo, Ipomoea coccinea", "method_in_brief": "as §3"}, "[11]": {"tested_on": "barnyardgrass", "assay": "Test B flooded paddy test", "assay_type": "in vivo, Echinochloa crus-galli", "conditions": "Flood, 250 g ai/ha; 0 to 100 scale where 0 is no effect and 100 is complete control", "method_in_brief": "as §2"}, "[12]": {"tested_on": "barnyardgrass", "assay": "Test A preemergence", "assay_type": "in vivo, Echinochloa crus-galli", "conditions": "1000 g ai/ha, 0 to 100 scale, 0 no effect, 100 complete control, approx. 10 days", "method_in_brief": "as §1"}, "[13]": {"tested_on": "sedge, umbrella", "assay": "Test B flooded paddy test", "assay_type": "in vivo, Cyperus difformis", "conditions": "Flood, 250 g ai/ha; 0 to 100 scale where 0 is no effect and 100 is complete control", "method_in_brief": "as §2"}, "[14]": {"tested_on": "giant foxtail", "assay": "Test C postemergence", "assay_type": "in vivo, Setaria faberii", "method_in_brief": "as §3"}, "[15]": {"tested_on": "large (Lg) crabgrass", "assay": "Test A preemergence", "assay_type": "in vivo, Digitaria sanguinalis", "conditions": "1000 g ai/ha, 0 to 100 scale, 0 no effect, 100 complete control, approx. 10 days", "method_in_brief": "as §1"}, "[16]": {"conditions": "16 g ai/ha, postemergence, 0 is no effect, 100 is complete control"}, "[17]": {"conditions": "31 g ai/ha, postemergence, visual rating, scale 0 to 100 (0 no effect, 100 complete control), 13 to 15 days"}, "[18]": {"conditions": "125 g ai/ha, postemergence, visual rating, scale 0 to 100 (0 no effect, 100 complete control)"}, "[19]": {"conditions": "Postemergence, 62 g ai/ha, scale 0 to 100 (0 no effect, 100 complete control), 13 to 15 days"}}}
{"smiles": "Clc1cnc(Oc2ccccc2-n2cc(Br)nn2)nc1", "note": "[Compound 223]", "values": [{"measurement": "Plant response rating, Barnyardgrass", "setting": "[1]", "result": 100}, {"measurement": "Plant response rating, Rice", "setting": "[2]", "result": 50}, {"measurement": "Plant response rating (0 to 100), Chickweed", "setting": "[3]; [16]", "result": 35}, {"measurement": "Chickweed plant response rating", "setting": "[3]; [17]", "result": 50}, {"measurement": "Plant response rating, Chickweed", "setting": "[3]; [18]", "result": 60}, {"measurement": "Plant response rating, Chickweed", "setting": "[3]; [19]", "result": 50}, {"measurement": "Plant response rating (0 to 100), Barnyardgrass", "setting": "[4]; [16]", "result": 0}, {"measurement": "Barnyardgrass plant response rating", "setting": "[4]; [17]", "result": 0}, {"measurement": "Plant response rating, Barnyardgrass", "setting": "[4]; [18]", "result": 5}, {"measurement": "Plant response rating, Barnyardgrass", "setting": "[4]; Postemergence, 62 g ai/ha, scale 0 to 100 (0 no effect, 100 complete control)", "result": 5}, {"measurement": "Plant response rating (0 to 100), Crabgrass, Large", "setting": "[5]; [16]", "result": 5}, {"measurement": "Crabgrass, Large plant response rating", "setting": "[5]; [17]", "result": 5}, {"measurement": "Plant response rating, Crabgrass, Large", "setting": "[5]; [18]", "result": 5}, {"measurement": "Plant response rating, Crabgrass, Large", "setting": "[5]; [19]", "result": 5}, {"measurement": "Plant response rating, Pigweed", "setting": "[6]", "result": 100}, {"measurement": "Plant response rating (0 to 100), Lambsquarters", "setting": "[7]; [16]", "result": 60}, {"measurement": "Lambsquarters plant response rating", "setting": "[7]; [17]", "result": 75}, {"measurement": "Plant response rating, Lambsquarters", "setting": "[7]; [18]", "result": 95}, {"measurement": "Plant response rating, Lambsquarters", "setting": "[7]; [19]", "result": 75}, {"measurement": "Plant response rating (0 to 100), Oat, Wild", "setting": "[8]; [16]", "result": 0}, {"measurement": "Oat, Wild plant response rating", "setting": "[8]; [17]", "result": 0}, {"measurement": "Plant response rating, Oat, Wild", "setting": "[8]; [18]", "result": 5}, {"measurement": "Plant response rating, Oat, Wild", "setting": "[8]; [19]", "result": 0}, {"measurement": "Plant response rating (0 to 100), Nutsedge, Yellow", "setting": "[9]; [16]", "result": 5}, {"measurement": "Nutsedge, Yellow plant response rating", "setting": "[9]; [17]", "result": 5}, {"measurement": "Plant response rating, Nutsedge, Yellow", "setting": "[9]; [18]", "result": 5}, {"measurement": "Plant response rating, Nutsedge, Yellow", "setting": "[9]; [19]", "result": 5}, {"measurement": "Plant response rating (0 to 100), Morningglory", "setting": "[10]; [16]", "result": 5}, {"measurement": "Morningglory plant response rating", "setting": "[10]; [17]", "result": 45}, {"measurement": "Plant response rating, Morningglory", "setting": "[10]; [18]", "result": 80}, {"measurement": "Plant response rating, Morningglory", "setting": "[10]; [19]", "result": 70}, {"measurement": "Plant response rating, Barnyardgrass", "setting": "[11]", "result": 35}, {"measurement": "Barnyardgrass plant response rating", "setting": "[12]", "result": 100}, {"measurement": "Plant response rating, Sedge, Umbrella", "setting": "[13]", "result": 85}, {"measurement": "Plant response rating (0 to 100), Foxtail, Giant", "setting": "[14]; [16]", "result": 5}, {"measurement": "Foxtail, Giant plant response rating", "setting": "[14]; [17]", "result": 5}, {"measurement": "Plant response rating, Foxtail, Giant", "setting": "[14]; [18]", "result": 5}, {"measurement": "Plant response rating, Foxtail, Giant", "setting": "[14]; [19]", "result": 5}, {"measurement": "Crabgrass, Large plant response rating", "setting": "[15]", "result": 100}]}
